Eleven compounds from US11590116B2 (THERAVANCE BIOPHARMA R&D IP, LLC, priority 2019, dated 2023) can be followed below.

For assay [1], the target named is T1, recombinant human ALK5 (TGF-βR1) protein (Homo sapiens, UniProt P36897).
T1 construct: purchased Life Technologies PR9075A
T1 sequence (P36897 34-503): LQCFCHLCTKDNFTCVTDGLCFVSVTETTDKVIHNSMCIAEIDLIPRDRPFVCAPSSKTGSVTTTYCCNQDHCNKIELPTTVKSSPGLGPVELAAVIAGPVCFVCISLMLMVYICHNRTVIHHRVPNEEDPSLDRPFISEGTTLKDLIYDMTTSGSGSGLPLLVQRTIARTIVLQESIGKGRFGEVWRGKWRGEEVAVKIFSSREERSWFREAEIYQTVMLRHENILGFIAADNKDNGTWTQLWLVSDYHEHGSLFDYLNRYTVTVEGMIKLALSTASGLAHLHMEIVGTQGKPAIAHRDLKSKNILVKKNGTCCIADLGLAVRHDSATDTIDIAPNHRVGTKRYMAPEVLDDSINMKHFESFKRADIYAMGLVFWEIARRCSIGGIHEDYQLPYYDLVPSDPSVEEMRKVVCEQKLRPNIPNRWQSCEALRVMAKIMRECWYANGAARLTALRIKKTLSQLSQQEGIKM
In words: Biochemical ALK5 (TGF-βR1) assay to measure pKi (LANCE Ultra ULight kinase assay). The note with it: apparent pKi from pIC50 by Cheng-Prusoff, read-out: ALK5 pKi (converted). Summed up: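 After a 60 min room-temperature preincubation of ALK5 with compound, phosphorylation proceeds 60 min at 37 °C on ATP addition (125 μM as 5× stock). Detection: Eu-labelled phospho-Thr1342 Topo IIα antibody in EDTA buffer, pH 7.0; emission 665 nm.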

Assay [2] relates to TGF-β-stimulated SMAD3 phosphorylation in BEAS-2B cells. Put plainly: Cellular ALK5 potency assay, inhibition of TGF-β stimulated pSMAD3 formation in BEAS-2B cells. It is filed as cell-based. The note with it: Homo sapiens, read-out: BEAS2B pIC50 (converted). The method in brief:
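BEAS-2B human lung epithelial cells pre-treated 1 h at 37° C with compound in HBSS/25 mM HEPES/1% BSA, then stimulated 30 min with 10 ng/mL TGF-β (final). Lysates assayed for pSMAD3 by AlphaLISA; pIC50 from dose-dependent change versus stimulated untreated cells.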

[3] abbreviates: inhibition of TGF-β stimulated pSMAD3 formation, BEAS-2B cells.

Read-outs that look alike come from different tables or passages of the source.

As to `COCC1CN(c2cnc3ccc(-c4c[nH]nc4-c4cccc(C)n4)nc3c2)CCN1` (racemic) [Compound 298, 2-[3-(6-methyl-2-pyridyl)-1H-pyrazol-4-yl]-7-[rac-(3R)-3-(methoxymethyl)piperazin-1-yl]-1,5-naphthyridine], the Ki in assay [1] was 0.0398 to 0.316 nM. Further, the IC50 in assay [2] (setting [3]) is 25.1 to 158 nM.
`Cc1cccc(-c2[nH]cnc2-c2ccc3ncc(-c4cnc(C(=O)OCCN5CCNCC5)nc4)cc3c2)n1` [Compound 1138, 2-piperazin-1-ylethyl 5-[6-[5-(6-methyl-2-pyridyl)-1H-imidazol-4-yl]-3-quinolyl]pyrimidine-2-carboxylate]: the Ki in assay [1] is 0.398 to 3.16 nM. For the same compound, the IC50 in assay [2] (setting [3]) was 200 to 1260 nM.
As for `Cc1cccc(-c2[nH]cnc2-c2ccc3ncc(-c4nc(C5=CCNCC5)cs4)cc3c2)n1` [Compound 1051, 2-(6-(5-(6-methylpyridin-2-yl)-1H-imidazol-4-yl)quinolin-3-yl)-4-(1,2,3,6-tetrahydropyridin-4-yl)thiazole], the Ki in assay [1] was 0.0398 to 0.316 nM. Further, the IC50 in assay [2] (setting [3]) is < 20 nM.
`Cc1cccc(-c2[nH]cnc2-c2ccc3nccc(C(=O)OC[C@H]4CC[C@H](N)CC4)c3c2)n1` [Compound 1081, (4-aminocyclohexyl)methyl 6-[5-(6-methyl-2-pyridyl)-1H-imidazol-4-yl]quinoline-4-carboxylate]: the Ki in assay [1] was 0.398 to 3.16 nM. In addition, in assay [2] (setting [3]), the IC50 is 200 to 1260 nM.
As to `Cc1cccc(-c2[nH]cnc2-c2ccc3ncc(-c4ccc(C(=O)OCCN5CCNCC5)nc4)cc3c2)n1` [Compound 1054, 2-piperazin-1-ylethyl 5-[6-[5-(6-methyl-2-pyridyl)-1H-imidazol-4-yl]-3-quinolyl]pyridine-2-carboxylate], in assay [1], the Ki was 0.0398 to 0.316 nM. For the same compound, the IC50 in assay [2] (setting [3]) was 200 to 1260 nM.
`Cc1cccc(-c2[nH]cnc2-c2ccc3ncc(-c4nc(C(=O)OC5CNC5)cs4)cc3c2)n1` [Compound 745, azetidin-3-yl 2-[6-[5-(6-methyl-2-pyridyl)-1H-imidazol-4-yl]-3-quinolyl]thiazole-4-carboxylate]: the Ki in assay [1] was 0.0398 to 0.316 nM. Besides, the IC50 in assay [2] (setting [3]) is 25.1 to 158 nM.
For the compound `Cc1nc(-c2n[nH]cc2-c2ccc3ncc(-c4cc5n(n4)CCNC5)cc3n2)ccc1F` [Compound 391, 2-[3-(5-fluoro-6-methyl-2-pyridyl)-1H-pyrazol-4-yl]-7-(4,5,6,7-tetrahydropyrazolo[1,5-a]pyrazin-2-yl)-1,5-naphthyridine], the Ki in assay [1] is < 0.0316 nM. Besides, in assay [2] (setting [3]), the IC50 was < 20 nM.
On the same counts, the results for `Cc1cccc(-c2n[nH]cc2-c2ccc3ncc(-c4ccc(C5CCCN(C)C5)cc4)cc3n2)n1` (stereo not shown) [Compound 552, 7-[4-(1-methyl-3-piperidyl)phenyl]-2-[3-(6-methyl-2-pyridyl)-1H-pyrazol-4-yl]-1,5-naphthyridine] are < 0.0316 nM and 200 to 1260 nM.
Consider `Cc1cccc(-c2[nH]cnc2-c2ccc3ncc(Nc4nc5n(n4)CCNC5)cc3c2)n1` [Compound 338, 6-(5-(6-methylpyridin-2-yl)-1H-imidazol-4-yl)-N-(5,6,7,8-tetrahydro-[1,2,4]triazolo[1,5-a]pyrazin-2-yl)quinolin-3-amine], for which the Ki in assay [1] is 0.0398 to 0.316 nM. For the same compound, the IC50 in assay [2] (BEAS-2B) is 200 to 1260 nM.
On to `Cc1cccc(-c2n[nH]cc2-c2ccc3ncc(-c4cnn(CCN)c4)cc3n2)n1` [Compound 305, 2-[4-[6-[3-(6-methyl-2-pyridyl)-1H-pyrazol-4-yl]-1,5-naphthyridin-3-yl]pyrazol-1-yl]ethanamine], for which the Ki in assay [1] is < 0.0316 nM. The IC50 in assay [2] (setting [3]) was 25.1 to 158 nM.
For the compound `Cc1nc(-c2n[nH]cc2-c2ccc3ncc(N4CCN(C(C)C)CC4)cc3n2)ccc1F` [Compound 687, 2-[3-(5-fluoro-6-methyl-2-pyridyl)-1H-pyrazol-4-yl]-7-(4-isopropylpiperazin-1-yl)-1,5-naphthyridine], the Ki in assay [1] was < 0.0316 nM. The IC50 in assay [2] (setting [3]) was 25.1 to 158 nM.
